The source of these data is patent US9453021B2, “Pyrimidodiazepinone compound” (Kyowa Hakko Kirin Co., Ltd., priority 2011, dated 2016).

Assay [1] has as its system Streptozotocin-induced diabetic pain model (diabetic rats). Nature of the assay: Pain relieving effect in streptozotocin-induced diabetic pain model. The class given is in vivo, rat. As to conditions: 1 mg/kg orally; for Relief Rate: pain threshold by von Frey filaments after 1 hour, STZ diabetic rats; for inhibition rate (in words): STZ-induced diabetic pain model. The method, then: Streptozotocin (STZ)-administered rats are widely used as an insulin-dependent diabetes model. In this model, decreased pain thresholds in response to mechanical stimulation are observed as in diabetic neuropathy patients [British Journal of Pharmacology, 1997, Vol. 122, p. 1478-1482].
(1) Preparation of STZ-Induced Diabetes Model
A STZ solution was prepared as a 30 mg/mL solution by being dissolved in a 0.05 mol/L citric acid aqueous solution (pH 4 to 4.5). The STZ solution (30 mg/mL) was intraperitoneally administered in a 2 mL/kg volume to rats (60 mg/kg). Rats showing 250 mg/dL or higher blood glucose levels after 1 week from the STZ administration were obtained as diabetic rats.
(2) Measurement of Pain Relieving Effect
The evaluation of Pain was performed with von Frey filaments [product name: Touch Test Sensory Evaluator, Model Number Model 58011, Muromachi Kikai Co., Ltd.], and the results were calculated as pain thresholds. Specifically, the above diabetic rats were stimulated by the pressure applied to the underside of the feet with von Frey filaments of varying stimulus strengths, and the stimulus strength at which the […] withdrew their feet was determined. From the result, a 50% pain threshold (paw withdrawal threshold)(g) was calculated by using the Dixon's up and down method [Annual Review of Pharmacology and Toxicology, 1980, Vol. 20, p. 441-462].
Rats with a 50% pain threshold of less than 4 g were used for the evaluation of the test compounds. The test compounds were each suspended in a 0.5% methyl cellulose aqueous solution, and orally administered in a 5 mL/kg volume. After 1 hour, the pain threshold was measured using von Frey filaments. The pain relief rate of the test compound was calculated by using the following equation.

For assay [2], the target named is α2δ protein (Rattus norvegicus, UniProt P54290). The assay can be described thus: α2δ protein binding experiment ([3H]-gabapentin binding inhibition). Particulars: 0.1 μmol/L test compound; [3H]-gabapentin 20 nmol/L; rat cerebral cortex membrane fraction; read-out: inhibitory activity. As to the method:
Experiment was conducted according to the methods described in European Journal of Pharmacology, 1993, 244, p. 293-301, using the report of Woodruff G N et al. as a reference (Journal of Biological Chemistry, 1996, 271, p. 5768-5776).
(1) Preparation of Membrane Fraction from Rat Cerebral Cortex
A male SD rat was purchased at the age of 6 weeks, and kept for at least 7 days prior to experiment. The cerebral cortex was removed, and gently washed with Tris-sucrose buffer A (containing 0.32 mol/L sucrose, 5 mmol/L tris-acetate, 1 mmol/L ethylenediaminetetraacetic acid (EDTA), 1 mmol/L ethylene glycol tetraacetic acid (EGTA), and a protease inhibitor cocktail tablet, pH 7.4). The cerebral cortex was placed in Tris-sucrose buffer A, and homogenized in 15 strokes (250 rpm) using a teflon homogenizer to obtain a crude extract. The crude extract was centrifuged at 4° C. for 10 minutes at 2,000 rpm, and the supernatant was collected. After adding Tris-sucrose buffer A to the resulting precipitate, the same homogenization and centrifugation procedures as above were performed, and the resulting supernatant was mixed with the previously obtained supernatant to obtain a total collected supernatant. The total collected supernatant was centrifuged at 4° C. for 30 minutes at 20,000 rpm, and the supernatant (cytosolic fraction) was removed. Tris-acetate buffer A (containing 5 mmol/L tris-acetate, 1 mmol/L EDTA, 1 mmol/L EGTA, and a protease inhibitor cocktail tablet, pH 8.0) was added to the remaining precipitate (cell membrane fraction), and the mixture was stirred for 1 hour. The stirred extract was centrifuged at 4° C. for 30 minutes at 26,500 rpm, and Tris-sucrose buffer B (containing 1.2 mol/L sucrose, 5 mmol/L tris-acetate, pH 7.4) was added to the resulting precipitate. The mixture was dispensed in centrifuge tubes in 15-mL portions, and 9 mL of Tris-sucrose buffer C (containing 0.9 mol/L sucrose, 5 mmol/L tris-acetate, pH 7.4) was gently layered on the mixture in each centrifuge tube without disrupting the interface. The centrifuge tubes were centrifuged at 4° C. for 90 minutes at 43,000 rpm, and the membrane fraction at the interface of the Tris-sucrose buffer B and the Tris-sucrose buffer C was collected with a Pasteur pipette. After adding Tris-acetate buffer B (5 mmol/L tris-acetate, pH 7.4) to the collected membrane fraction, the mixture was centrifuged at 4° C. for 20 minutes at 26,500 rpm. The resulting precipitate was resuspended in Tris-acetate buffer B to obtain a cerebral cortex membrane fraction, and the cerebral cortex membrane fraction was stored at −80° C. until use in the binding experiment. For the binding experiment, the stored suspension was centrifuged at 4° C. for 30 minutes at 32,000 rpm, and Binding buffer [a 0.1 w/v % bovine serum albumin (BSA)-containing 10 mmol/L 4-(2-hydroxyethyl)-1-piperazineethanesulfonic acid (HEPES) solution adjusted to pH 7.4 with sodium hydroxide] for the binding experiment was added to the obtained precipitate, and resuspended with a syringe equipped with an injection needle to adjust to the desired concentration.
(2) [^3H]-Gabapentin Binding Inhibition Experiment
A test compound (20 μL) diluted to 5 times of the final concentration with Binding buffer, [^3H]-gabapentin diluted to 100 nmol/L with binding buffer [20 μL (final concentration 20 nmol/L)], and the rat cerebral cortex membrane fraction (60 μL; 12 μg membrane fraction) obtained in the (1) above were added to each well of a 96-well round-bottom plate. After being sufficiently mixed, these were allowed to react at room temperature for 1 hour. After the reaction, the reaction sample was suction filtered using a filter plate with 50 μL/well of 0.3 vol % polyethyleneimine added, and a cell harvester. The filter was then washed with ice-cooled Wash buffer (100 mmol/L NaCl, 0.1 w/v % BSA). […]

Chain of α2δ protein (P54290 25-944 limits assumed): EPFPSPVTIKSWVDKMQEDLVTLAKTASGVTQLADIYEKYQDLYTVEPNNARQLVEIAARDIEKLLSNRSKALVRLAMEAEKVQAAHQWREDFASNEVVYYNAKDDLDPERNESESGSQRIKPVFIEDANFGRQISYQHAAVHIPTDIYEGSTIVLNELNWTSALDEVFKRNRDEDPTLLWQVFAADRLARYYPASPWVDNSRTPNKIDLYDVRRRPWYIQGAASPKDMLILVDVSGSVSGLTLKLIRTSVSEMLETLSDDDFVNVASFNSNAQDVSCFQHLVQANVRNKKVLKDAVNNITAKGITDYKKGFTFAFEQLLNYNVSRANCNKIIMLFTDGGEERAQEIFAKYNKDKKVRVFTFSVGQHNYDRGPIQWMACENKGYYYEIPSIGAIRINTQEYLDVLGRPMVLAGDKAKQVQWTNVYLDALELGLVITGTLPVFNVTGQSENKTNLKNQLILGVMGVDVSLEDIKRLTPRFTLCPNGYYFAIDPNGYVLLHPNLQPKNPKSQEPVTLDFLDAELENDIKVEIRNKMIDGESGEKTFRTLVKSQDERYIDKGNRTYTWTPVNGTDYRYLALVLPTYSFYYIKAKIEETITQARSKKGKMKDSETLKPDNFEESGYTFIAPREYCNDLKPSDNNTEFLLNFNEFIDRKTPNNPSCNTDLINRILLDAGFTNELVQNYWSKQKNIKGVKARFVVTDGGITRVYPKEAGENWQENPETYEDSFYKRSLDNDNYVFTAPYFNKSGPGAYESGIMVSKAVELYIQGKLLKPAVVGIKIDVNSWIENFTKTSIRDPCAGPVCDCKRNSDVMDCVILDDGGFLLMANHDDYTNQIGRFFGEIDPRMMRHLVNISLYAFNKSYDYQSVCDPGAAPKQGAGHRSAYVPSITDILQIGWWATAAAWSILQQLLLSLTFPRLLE
Chain of α2δ protein (P54290 945-1091 limits assumed): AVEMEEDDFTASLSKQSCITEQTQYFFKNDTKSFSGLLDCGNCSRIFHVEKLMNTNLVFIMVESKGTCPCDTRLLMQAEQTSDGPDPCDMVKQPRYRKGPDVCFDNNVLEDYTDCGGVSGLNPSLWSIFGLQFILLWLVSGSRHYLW

On to `CNc1ncc2c(n1)N1CCC[C@H]1CN(c1cccc3c1C(=O)C(=O)N3C)C2=O` [Compound 1-146, (S)-9-Methylamino-5-(1-methylindoline-2,3-dion-4-yl)-1,2,3,3a,4,5-hexahydro-5,8,10,10b-tetraazabenzo[e]azulen-6-one, reference compound], for which, in assay [1], the “Relief Rate” value was 6%.

With `CNc1ncc2c(n1)N1CCC[C@H]1CN(c1cccn3c(=O)c(C)c(C)nc13)C2=O` [Compound 8, (S)-6-(2,3-Dimethyl-4-oxo-4H-pyrido[1,2-a]pyrimidin-9-yl)-2-methylamino-6,7,7a,8,9,10-hexahydro-5H-pyrimido[5,4-f]pyrrolo[1,2-a][1,4]diazepin-5-one], in assay [1], the “Relief Rate” value came to 85% and the “inhibition rate (in words)” value is given as “good inhibition rate”.

In the case of `CNc1ncc2c(n1)N1CCC[C@H]1CN(c1cccc3c(=O)n(C)cnc13)C2=O` [Compound 10, (S)-6-(3-Methyl-4-oxo-3,4-dihydroquinazolin-8-yl)-2-methylamino-6,7,7a,8,9,10-hexahydro-5H-pyrimido[5,4-f]pyrrolo[1,2-a][1,4]diazepin-5-one], in assay [1], the “Relief Rate” value is recorded as 91% and the “inhibition rate (in words)” value was “good inhibition rate”.

As to `CCNc1ncc2c(n1)N1CCC[C@H]1CN(c1cccc3c1CCC(=O)N3C)C2=O` [Compound 83, (S)-2-Ethylamino-6-(1-methyl-2-oxo-1,2,3,4-tetrahydroquinolin-5-yl)-6,7,7a,8,9,10-hexahydro-5H-pyrimido[5,4-f]pyrrolo[1,2-a][1,4]diazepin-5-one], the inhibition at 0.1 µM in assay [2] is not below 50%.

Consider `Cn1cnc2cccc(N3C[C@@H]4CCCN4c4nc(N)ncc4C3=O)c2c1=O` [Compound 85, (S)-2-Amino-6-(3-methyl-4-oxo-3,4-dihydroquinazolin-5-yl)-6,7,7a,8,9,10-hexahydro-5H-pyrimido[5,4-f]pyrrolo[1,2-a][1,4]diazepin-5-one], for which the inhibition at 0.1 µM in assay [2] is not below 50%.

In the case of `CCNc1ncc2c(n1)N1CCC[C@H]1CN(c1csc3c(=O)n(C)ccc13)C2=O` [Compound 90, (S)-3-(2-Ethylamino-5-oxo-7a,8,9,10-tetrahydro-5H-pyrimido[5,4-f]pyrrolo[1,2-a][1,4]diazepin-6(7H)-yl)-6-methylthieno[2,3-c]pyridin-7(6H)-one], the inhibition at 0.1 µM in assay [2] was not below 50%.

`CNc1ncc2c(n1)N1CCC[C@H]1CN(c1csc3c(=O)n(C)ccc13)C2=O` [Compound 91, (S)-6-Methyl-3-(2-methylamino-5-oxo-7a,8,9,10-tetrahydro-5H-pyrimido[5,4-f]pyrrolo[1,2-a][1,4]diazepin-6(7H)-yl)thieno[2,3-c]pyridin-7(6H)-one]: the inhibition at 0.1 µM in assay [2] was not below 50%.

In the case of `CCNc1ncc2c(n1)N1CCC[C@H]1CN(c1cn(C)c3c(=O)n(C)ccc13)C2=O` [Compound 93, (S)-6-(1,6-Dimethyl-7-oxo-6,7-dihydro-1H-pyrrolo[2,3-c]pyridin-3-yl)-2-ethylamino-6,7,7a,8,9,10-hexahydro-5H-pyrimido[5,4-f]pyrrolo[1,2-a][1,4]diazepin-5-one], in assay [2], the inhibition at 0.1 µM is not below 50%.

For `CCNc1ncc2c(n1)N1C[C@H](F)C[C@H]1CN(c1cccc3c(=O)n(C)cnc13)C2=O` [Compound 115, (7aS,9R)-2-Ethylamino-9-fluoro-6-(3-methyl-4-oxo-3,4-dihydroquinazolin-8-yl)-6,7,7a,8,9,10-hexahydro-5H-pyrimido[5,4-f]pyrrolo[1,2-a][1,4]diazepin-5-one], the inhibition at 0.1 µM in assay [2] is not below 50%.

Regarding `CCNc1ncc2c(n1)N1C[C@@H](OC)C[C@H]1CN(c1cccc3c(=O)n(C)cnc13)C2=O` [Compound 117, (7aS,9S)-2-Ethylamino-9-methoxy-6-(3-methyl-4-oxo-3,4-dihydroquinazolin-8-yl)-6,7,7a,8,9,10-hexahydro-5H-pyrimido[5,4-f]pyrrolo[1,2-a][1,4]diazepin-5-one], the inhibition at 0.1 µM in assay [2] was not below 50%.

As for `CCNc1ncc2c(n1)N1C[C@H](O)C[C@H]1CN(c1cccc3c(=O)n(C)cnc13)C2=O` [Compound 118, (7aS,9R)-2-Ethylamino-9-hydroxy-6-(3-methyl-4-oxo-3,4-dihydroquinazolin-8-yl)-6,7,7a,8,9,10-hexahydro-5H-pyrimido[5,4-f]pyrrolo[1,2-a][1,4]diazepin-5-one], the inhibition at 0.1 µM in assay [2] was not below 50%.
